The values that follow come from patent US20040123342A1, “Monocotyledonous plant transformation” (Sugar Research & Development Corporation, priority 2000, published 2004).

For series [1], the system named is TS leaf whorl explants obtained from the Q187 and Q124 sugarcane cultivars. Kind of series: Cross-testing of NAA and BA concentrations for shoot regeneration from thin section leaf whorl explants. It is filed as cell-based. To be noted: for optimal concentration in culture medium for regeneration: Q187 and Q124 TS leaf whorl explants. The procedure:
Murashige & Skoog (MS) nutrient formulation supplemented with 30 g/L sucrose and 7.5 g/L Difco agar was used as the basal culture medium. Basal medium was, for certain phases of culture as will be described below, enriched with the cytokinin N^6-benzylaminopurine (BA) and the auxin a-napthaleneacetic acid NAA) together with anti-oxidants such as citric acid (CA), ascorbic acid (AA), or dithiothreitol (DTT). The pH of the medium was adjusted to 5.7 before autoclaving at 11kPa for 20 minutes at 120° C. TS explants were cultured in various orientations either in tissue culture dishes (90×14 mm) with 40 ml agar- solidified medium or in a 100 mL baby food jar containing 40 ml liquid medium, or on membrane rafts with flotation kept in a polypropylene container with 40 ml liquid medium. Liquid cultures were agitated continuously on a gyratory shaker at 120 rpm. All cultures were incubated at […] under 16 hr photoperiod provided by cool, white fluorescent tubes, Subculturing was carried out at least once a week, or more frequently if medium or TS turned brown due to phenolic exudation. Cross-testing of NAA and BA concentrations was also performed using TS leaf whorl explants obtained from the […] and […] sugarcane cultivars. […] However, higher concentrations of NAA (10-40 μM) promoted a slightly […] percentage of explants producing shoots. There was no clear trend in terms of the number of shoots produced with regard to either NAA or BA concentration, Generally, 4 μM BA was preferred at any given concentration of NAA, while NAA was optimal when present in culture medium at a concentration of 10 μM.

In series [2] the test system is leaf TS explants (sugarcane cultivar Q165). In words: Effect of selection agent on shoot regeneration from bombarded leaf TS explants. It is filed as cell-based. The note with it: 100 mg/L in medium, transfer at 3 days after bombardment. As for the experimental part:
Sugarcane leaf sheath tissue taken from just above the meristem was taken from cultivar Q165 plants. Transverse thin section explants (2-3 mm) of leaf whorl were obtained from the harvested tissue. These are generally referred to as leaf thin sections.
A number of preliminary experiments were performed to detennije parametens which provided optimal regeneration from transformed tissue while providing optimal selection of transformants.
Similar results were obtained when bombarded TS explants were transferred to medium containing even low levels of selection agent.

Consider `c1ccc(CNc2ncnc3nc[nH]c23)cc1` [BA, N^6-benzylaminopurine], for which the “optimal concentration in culture medium for regeneration” value in series [1] was 4 µM. Also, the “regeneration efficiency, 4 μM vs 8 μM BA” value is recorded as “no clear preference” in series [1] (cultivar Q124, any of the regeneration criteria examined) and 4 μM BA was clearly more efficient than 8 μM BA in series [1] (cultivar Q187, TS leaf whorl explants).

Consider `O=C(O)Cc1cccc2ccccc12` [NAA, a-napthaleneacetic acid], for which the “optimal concentration in culture medium for regeneration” value in series [1] came out at 10 µM. For the same compound, the “percentage of explants producing shoots” value in series [1] (higher concentrations of NAA (10-40 μM)) was “slightly hither percentage of explants producing shoots”.

On to paromomycin sulphate, for which the shoot regeneration result in series [2] was “no shoot regeneration”.
